# Results reported in US10738097B2, “Interferon-beta analog peptide” (priority 2017, dated 2020).
# What was measured:
# Format in all cases: in vivo, mouse
# [1] = test system: matrix metalloproteinase 2 (MMP2); assay: MMP2 gene expression in brain tissue of EAE mice, quantitative real-time PCR; details: 20 mg/kg
# Protocol: (§1) In this example, effects of the IFNβ analog peptide as the IFNβ analog peptide on the expression of some related inflammations mediators such as matrix metalloproteinase 2 (MMP2) and matrix metalloproteinase 9 (MMP9) were studied using quantitative real-time polymerase chain reaction (PCR).
# (§2) The EAE mice were treated with PBS as the vehicle group, and dosage of the IFNβ analog peptide and IFNβ was 20 mg/kg in IFNβ analog peptide-treated mice and IFNβ-treated mice groups. After that RNA of the cells was extracted and their cDNA was synthesized.
# [2] = test system: tumor necrosis factor-alpha (TNFα); assay: Plasma TNFα of EAE mice, ELISA; details: 21 days after EAE induction
# Protocol: (§3) Moreover, after 21 days of EAE induction, mice were euthanized and their blood was obtained via cardiac puncture and plasma was prepared. Expression levels of tumor necrosis factor-alpha (TNFα) and interleukin 1β (IL1β) as circulating inflammatory biomarkers were measured in the plasma using quantitative enzyme-linked immunosorbent assay (ELISA) kits.
# EAE-induced C57BL/6 mice = assay: Clinical score in MOG-induced experimental autoimmune encephalomyelitis (EAE); details: IFNβ analog peptide = SEQ ID No. 1
# Protocol: In this example, therapeutic effects of the IFNβ analog peptide with SEQ ID No. 1 on the development of progressive experimental autoimmune encephalomyelitis (EAE) were studied. At first, EAE was induced in 8 weeks old C57BL/6 male mice with a weight between 20 grams and 25 grams. In order to induce EAE, mice were anesthetized with isoflurane and subcutaneously injected with 100 μl of MOG (myelin oligodendrocyte glycoprotein) with a concentration of about 2.5 g/l suspended in 100 μl complete Freund's adjuvant (CFA) into the hind flank. Mice were also intraperitoneally injected with 400 ng of pertussis toxin in 200 μl of phosphate buffered saline (PBS). A second, identical injection of pertussis toxin was given two days following the first immunization. Injections were distributed over four spots, for example about 100 μl per site across the flank areas. […]
# After that, in order to conduct clinical evaluation, mice of the experimental groups were blinded scored as follows: score 0 for no overt signs of disease, score 1 for limp tail, score 2 for limp tail and hind limb weakness, score 3 for partial hind limb paralysis of one side (hemiparesis) or both sides (paraparesis), score 4 for complete hind limb paralysis of one side (hemiplegia) or both sides (paraplegia), score 5 for moribund state. The day of immunization was considered as EAE day 0 and clinical behavior of mice was scored daily. […]
# [3] = test system: matrix metalloproteinase 9 (MMP9); assay: MMP9 gene expression in brain tissue of EAE mice, quantitative real-time PCR; details: 20 mg/kg
# Protocol: as §1, §2
# interleukin 1β (IL1β) = assay: Plasma IL1β of EAE mice, ELISA; details: 21 days after EAE induction
# Protocol: as §3
# CD45 positive cells = CD45 positive cells in cerebral cortex of EAE mice; details: 10 and 20 mg/kg, particularly 20 mg/kg, day 21
# Protocol: (§4) Furthermore, brain inflammatory response after IFNβ analog peptide treatment as the IFNβ analog peptide was evaluated by measuring the number of IL-17 positive cells, CD11b positive cells, and CD45 positive cells. IL-17 is the most important pro-inflammatory cytokine produced by T-helper cells, CD11b is an activated macrophages and microglia marker, and CD45 is a general leukocytes marker.
# (§5) After 21 days of EAE induction, mice were euthanized and were transcardially perfused with PBS. Then, the brains were dissected; cerebral cortex was isolated and snap-frozen in liquid nitrogen.
# CD11b positive cells = CD11b positive cells in cerebral cortex of EAE mice; details: 10 and 20 mg/kg, particularly 20 mg/kg, day 21
# Protocol: as §4, §5
# IL-17 positive cells = IL-17 positive cells in cerebral cortex of EAE mice; details: 10 and 20 mg/kg, particularly 20 mg/kg, day 21
# Protocol: as §4, §5
# [4] = P<0.05, SEQ ID of peptide not stated in Example 6
substance,measurement,setting,value
"IFNβ: Interferon-beta, first-line treatment for relapsing-remitting multiple sclerosis; comparator","Reduction of MMP2, IFNβ versus IFNβ analog peptide",[1],reduction of these inflammation mediators was more in IFNβ-treated mice
same,MMP2 gene expression fold change in the brain tissue compared to the vehicle group,[1]; [4],significant decrease
same,"Reduction of TNFα, IFNβ versus IFNβ analog peptide",[2],reduction of these inflammation mediators was more in IFNβ-treated mice
same,Plasma level of TNFα compared to the vehicle group,[2]; P-value<0.05,significant decrease
same,Effect of raising the dose on EAE clinical symptoms,EAE-induced C57BL/6 mice; 20 mg/kg versus 10 mg/kg,improved disease protection
same,Mean clinical score (AUC) versus vehicle group and EAE group,EAE-induced C57BL/6 mice; 10 and 20 mg/kg injected on day 14 of EAE induction,significant reduction in the clinical score
same,"Reduction of MMP9, IFNβ versus IFNβ analog peptide",[3],reduction of these inflammation mediators was more in IFNβ-treated mice
same,MMP9 gene expression fold change in the brain tissue compared to the vehicle group,[3]; [4],significant decrease
same,"Reduction of IL1β, IFNβ versus IFNβ analog peptide",interleukin 1β (IL1β),reduction of these inflammation mediators was more in IFNβ-treated mice
same,Plasma level of IL1β compared to the vehicle group,interleukin 1β (IL1β); P-value<0.05,significant decrease
same,Percentage of CD45 positive cells in the cerebral cortex,CD45 positive cells,considerably decreased
same,Percentage of CD11b positive cells in the cerebral cortex,CD11b positive cells,considerably decreased
same,Percentage of IL-17 positive cells in the cerebral cortex,IL-17 positive cells,considerably decreased
